Patent publication US20250255992A1, “COXIB-DERIVED CONJUGATE COMPOUNDS AND METHODS OF USE THEREOF” (Reiley Pharmaceuticals, Inc., priority 2020, published 2025)

Columns and labels:
[1] = target: human COX-2 (Homo sapiens (Human), UniProt P35354); format: biochemical; details: read-out: COX-2 IC50 (μM) enzyme
[2] = target: COX-2 (Mus musculus (Mouse), UniProt Q05769); experiment: Cell-based COX-2 assay (PGE2 in LPS/IFN-g stimulated RAW264.7 cells); details: RAW264.7 murine macrophages, LPS + IFN-g, PGE2 readout
Procedure: Cell culture: RAW264.7 murine macrophages are obtained from the Cell Bank of Shanghai Institute of Biochemistry and Cell Biology, Chinese Academy of Sciences (Shanghai, China) and cultured in Dulbecco's modified Eagle's medium containing 100 U/ml penicillin and 100 µg/ml streptomycin at 37° C. in 5% CO2.
The cells are pre-incubated for 30 min with various doses of compounds and stimulated for 7 h with […] LPS and 10 U/ml IFN-g. The cell culture supernatants are collected immediately following treatment and centrifuged at 1,000 rpm for 5 min to remove the particulate matter. PGE2 is determined using a Prostaglandin E2 assay kit (catalog no. 62P2APEB; Cisbio Co.). […] Replace the standard by 10 μL of diluent and PGE2-d2 by 5 μL of reconstitution buffer, Cal0 (for positive control), replace the standard by 10 µL of diluent. Incubate at 4° C. overnight.
(§1) Dose-response curves are generated using XLFit (IDBS, Surrey, UK) or Prism (GraphPad Software, La Jolla, CA, US) to calculate IC50 values for each compound tested.

[3] = target: ovine COX-1 (Ovis aries (Sheep), UniProt P05979); experiment: COX-1/-2 enzyme assay (EIA kit), COX-1; format: biochemical; details: ovine COX-1 enzyme immunoassay
Procedure: COX-1/-2 enzyme assay: The ability of compounds to inhibit ovine COX-1 and human COX-2 is determined using a commercially available enzyme immunoassay (EIA) kit (catalog no. 701090 (COX-1); 701080 (COX-2) Cayman Chemical Co., Ann Arbor, MI, USA) according to the manufacturer's protocol. COX catalyzes the first step in the biosynthesis of AA to PGH2. PGF2α, produced from PGH2 by reduction with stannous chloride, was measured by EIA (ACE™ competitive EIA, Cayman Chemical, Ann Arbor, MI, USA). Briefly, to a series of supplied reaction buffer solutions [960 μl 0.1 M Tris-HCl (pH 8.0) containing 5 mM EDTA and 2 mM phenol] with either COX-1 or COX-2 (10 μl) enzyme in the presence of heme (10 μl), 10 μl of various concentrations of test drug solutions are added. These solutions are incubated for 15 min at 37° C. and subsequently 10 μl AA solution (100 μM) is added. The COX reaction is stopped by the addition of 30 μl stannous chloride after 2 min, mixed immediately, supernatants are 2000-fold diluted. The produced PGF2α is measured by EIA. This assay is based on the competition between PGs and a PG-acetylcholinesterase conjugate (PG tracer) for a limited amount of PG antiserum. The amount of PG tracer that is able to bind to the PG antiserum is inversely proportional to the concentration of PGs in the wells since the concentration of the PG tracer is held at a constant while the concentration of PGs varies. The specific antiserum-PG complex binds to a mouse anti-rabbit IgG that had been previously attached to the well. The plate is washed to remove any unbound reagents and 200 μl Ellman's reagent (5,5′-dithiobis-(2-nitrobenzoic acid), which contains the substrate to acetylcholine esterase, is added to the well. The product of this enzymatic reaction generates a distinct yellow color that absorbs at 406 nm. The intensity of this color, determined by spectrophotometry, is proportional to the amount of PG tracer bound to the well, which is inversely proportional to the amount of PGs present in the well during the incubation. Percent inhibition is calculated by the comparison of the compounds treated to the various control incubations.
as §1

ovine COX-1, sequence (P05979 25-600 limits assumed): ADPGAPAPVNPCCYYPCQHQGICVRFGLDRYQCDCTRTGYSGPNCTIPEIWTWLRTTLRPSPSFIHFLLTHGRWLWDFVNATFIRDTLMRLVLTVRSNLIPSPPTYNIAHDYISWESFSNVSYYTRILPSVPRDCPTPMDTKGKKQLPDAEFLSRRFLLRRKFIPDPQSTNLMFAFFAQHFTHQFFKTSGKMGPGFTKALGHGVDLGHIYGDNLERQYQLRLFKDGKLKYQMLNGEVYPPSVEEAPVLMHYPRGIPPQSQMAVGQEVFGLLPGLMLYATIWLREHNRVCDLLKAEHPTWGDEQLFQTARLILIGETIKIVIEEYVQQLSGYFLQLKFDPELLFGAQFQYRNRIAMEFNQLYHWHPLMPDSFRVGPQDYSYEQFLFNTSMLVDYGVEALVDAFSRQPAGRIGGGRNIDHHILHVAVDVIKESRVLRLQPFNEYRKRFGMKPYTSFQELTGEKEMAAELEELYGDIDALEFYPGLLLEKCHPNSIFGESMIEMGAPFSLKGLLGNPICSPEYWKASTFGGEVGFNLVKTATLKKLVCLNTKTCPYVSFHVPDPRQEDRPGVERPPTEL
COX-2, sequence (Q05769 18-604): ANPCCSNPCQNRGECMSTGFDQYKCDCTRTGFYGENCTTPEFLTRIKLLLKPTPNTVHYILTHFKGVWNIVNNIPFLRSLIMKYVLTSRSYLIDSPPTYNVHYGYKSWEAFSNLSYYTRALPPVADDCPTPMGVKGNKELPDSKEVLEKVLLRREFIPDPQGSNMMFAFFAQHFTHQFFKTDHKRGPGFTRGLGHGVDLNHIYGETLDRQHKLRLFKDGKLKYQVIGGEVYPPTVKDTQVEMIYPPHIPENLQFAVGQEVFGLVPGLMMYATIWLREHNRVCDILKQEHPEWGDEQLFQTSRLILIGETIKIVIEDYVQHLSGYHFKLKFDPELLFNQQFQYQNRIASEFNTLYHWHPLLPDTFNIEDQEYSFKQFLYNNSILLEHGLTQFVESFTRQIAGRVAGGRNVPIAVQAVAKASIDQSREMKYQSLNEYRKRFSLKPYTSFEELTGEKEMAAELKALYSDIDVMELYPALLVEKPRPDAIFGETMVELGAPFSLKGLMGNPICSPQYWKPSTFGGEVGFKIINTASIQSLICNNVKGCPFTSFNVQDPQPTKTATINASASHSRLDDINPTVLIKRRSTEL
human COX-2, sequence (P35354 18-604 limits assumed): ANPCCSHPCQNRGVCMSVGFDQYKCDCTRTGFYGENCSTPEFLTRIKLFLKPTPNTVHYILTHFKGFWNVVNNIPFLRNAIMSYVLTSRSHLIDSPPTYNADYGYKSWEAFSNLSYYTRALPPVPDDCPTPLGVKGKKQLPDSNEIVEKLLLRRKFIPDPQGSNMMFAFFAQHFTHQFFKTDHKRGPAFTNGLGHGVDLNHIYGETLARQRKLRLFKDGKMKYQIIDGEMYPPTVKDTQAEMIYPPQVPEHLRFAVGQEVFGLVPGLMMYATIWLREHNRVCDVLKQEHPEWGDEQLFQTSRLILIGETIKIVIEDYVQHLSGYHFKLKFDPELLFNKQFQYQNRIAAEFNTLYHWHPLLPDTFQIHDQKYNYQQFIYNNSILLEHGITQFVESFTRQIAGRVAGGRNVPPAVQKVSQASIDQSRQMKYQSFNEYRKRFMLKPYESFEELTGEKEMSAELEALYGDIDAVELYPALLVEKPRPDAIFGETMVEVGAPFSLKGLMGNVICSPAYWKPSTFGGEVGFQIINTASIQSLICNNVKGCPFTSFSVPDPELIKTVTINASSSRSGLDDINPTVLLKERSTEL

SMILES | IC50 [1] | IC50 [2] | IC50 [3]
NS(=O)(=O)c1ccc(-n2nc(CCCCCN3CC[S][Re]4(=[O])[S]CC[N]4CC3)cc2-c2ccc(F)cc2)cc1 (stereo not drawn) [Compound 2] | 1.33 µM | 0.66 µM | –
NS(=O)(=O)c1ccc(-n2nc(CCCCCCCN3CC[S][Re]4(=[O])[S]CC[N]4CC3)cc2-c2ccc(F)cc2)cc1 (stereo not drawn) [Compound 3] | > 10 µM | – | –
NS(=O)(=O)c1ccc(-n2nc(CCCCCCCCN3CC[S][Re]4(=[O])[S]CC[N]4CC3)cc2-c2ccc(F)cc2)cc1 (stereo not drawn) [Compound 4] | 0.59 µM | 0.32 µM | –
NS(=O)(=O)c1ccc(-n2nc(CCCCCCCCC[N+]34CC[S][Re]35(=[O])[S]CC[N]5CC4)cc2-c2ccc(F)cc2)cc1 (stereo not drawn) [Compound 5] | 0.13 µM | 0.15 µM | > 10 µM
NS(=O)(=O)c1ccc(-n2nc(CCCCCCN3CC[S][Re]4(=[O])[S]CC[N]4CC3)cc2-c2ccc(Cl)cc2)cc1 (stereo not drawn) [Compound 6] | 3.31 µM | – | –
NS(=O)(=O)c1ccc(-n2nc(CCCCCCCN3CC[S][Re]4(=[O])[S]CC[N]4CC3)cc2-c2ccc(Cl)cc2)cc1 (stereo not drawn) [Compound 7] | > 10 µM | – | –
NS(=O)(=O)c1ccc(-n2nc(CCCCCCCCC[N+]34CC[S][Re]35(=[O])[S]CC[N]5CC4)cc2-c2ccc(Cl)cc2)cc1 (stereo not drawn) [Compound 8] | 0.19 µM | 0.2 µM | –
NS(=O)(=O)c1ccc(-n2nc(CCCCCCCCN3CC[S][Re]4(=[O])[S]CC[N]4CC3)cc2-c2ccc(Cl)cc2)cc1 (stereo not drawn) [Compound 9] | 0.11 µM | 0.19 µM | –
COc1ccc(-c2cc(CCCCCCCCC[N+]34CC[S][Re]35(=[O])[S]CC[N]5CC4)nn2-c2ccc(S(N)(=O)=O)cc2)cc1 (stereo not drawn) [Compound 10] | 0.06 µM | 0.16 µM | > 10 µM
Cc1ccc(-c2cc(CCCCCCCCCN3CC[S][Re]4(=[O])[S]CC[N]4CC3)nn2-c2ccc(S(N)(=O)=O)cc2)cc1 (stereo not drawn) [Compound 11] | 4.49 µM | 0.2 µM | –
NS(=O)(=O)c1ccc(-n2nc(COCCCCCC[N+]34CC[S][Re]35(=[O])[S]CC[N]5CC4)cc2-c2ccc(F)cc2)cc1 (stereo not drawn) [Compound 14] | 2.36 µM | – | –
NS(=O)(=O)c1ccc(-n2nc(COCCCC[N+]34CC[S][Re]35(=[O])[S]CC[N]5CC4)cc2-c2ccc(F)cc2)cc1 (stereo not drawn) [Compound 15] | 2.37 µM | – | –
NS(=O)(=O)c1ccc(-n2nc(COCCCCCCC[N+]34CC[S][Re]35(=[O])[S]CC[N]5CC4)cc2-c2ccc(F)cc2)cc1 (stereo not drawn) [Compound 16] | 0.31 µM | 0.21 µM | > 10 µM
NS(=O)(=O)c1ccc(-n2nc(COCCCOCCCN3CC[S][Re]4(=[O])[S]CC[N]4CC3)cc2-c2ccc(F)cc2)cc1 (stereo not drawn) [Compound 17] | 4.15 µM | – | –
NS(=O)(=O)c1ccc(-n2nc(COCCCCCCN3CC[S][Re]4(=[O])[S]CC[N]4CC3)cc2-c2ccc(Cl)cc2)cc1 (stereo not drawn) [Compound 18] | > 10 µM | – | –
COc1ccc(-c2cc(COCCCCCCN3CC[S][Re]4(=[O])[S]CC[N]4CC3)nn2-c2ccc(S(N)(=O)=O)cc2)cc1 (stereo not drawn) [Compound 19] | 4.51 µM | – | –
COc1ccc(-c2cc(COCCCCCCCN3CC[S][Re]4(=[O])[S]CC[N]4CC3)nn2-c2ccc(S(N)(=O)=O)cc2)cc1 (stereo not drawn) [Compound 20] | 0.54 µM | 0.22 µM | –
Cc1ccc(-c2cc(COCCCCCCC[N+]34CC[S][Re]35(=[O])[S]CC[N]5CC4)nn2-c2ccc(S(N)(=O)=O)cc2)cc1 (stereo not drawn) [Compound 21] | 2.48 µM | 0.15 µM | –
NS(=O)(=O)c1ccc(-c2c(-c3ccccc3)noc2CCCCCC[N+]23CC[S][Re]24(=[O])[S]CC[N]4CC3)cc1 (stereo not drawn) [Compound 26] | 0.16 µM | 0.23 µM | –
NS(=O)(=O)c1ccc(-c2c(-c3ccccc3)noc2CCCCCCC[N+]23CC[S][Re]24(=[O])[S]CC[N]4CC3)cc1 (stereo not drawn) [Compound 27] | 0.07 µM | 0.07 µM | > 10 µM
NS(=O)(=O)c1ccc(-c2c(-c3ccccc3)noc2CCCCCCCCC[N+]23CC[S][Re]24(=[O])[S]CC[N]4CC3)cc1 (stereo not drawn) [Compound 28] | 0.019 µM | 0.025 µM | > 10 µM
